Experimental data reported in US9468602B2, “Pharmaceutical microemulsion for preventing supramolecular aggregation of amphiphilic molecules” (AZAD Pharma AG, priority 2009, dated 2016).

Assay: Dynamic Laser Light Scattering (DLLS) analysis of supramolecular aggregation
Type: physicochemical
Protocol: Dynamic Laser Light Scattering (DLLS) was carried out on a Zetasizer Nano S from Malvern Instruments. DLLS is used for measuring the size of the microemulsion oil droplets or size of the supramolecular aggregates (% distribution function modality). Further characterization of supramolecular aggregation is given by the correlation coefficient function modality analysis of the Dynamic Laser Light Scattering.
In order to monitor the level of molecular aggregation in solution, Dynamic Laser Light Scattering (DLLS) has been used. Using this technique, it is not necessary to dilute the sample.

CC(=O)O[C@@]12CO[C@@H]1C[C@H](O)[C@@]1(C)C(=O)[C@H](O)C3=C(C)[C@@H](OC(=O)[C@H](O)[C@@H](NC(=O)OC(C)(C)C)c4ccccc4)C[C@@](O)([C@@H](OC(=O)c4ccccc4)[C@H]21)C3(C)C [docetaxel]
Aggregation by DLLS (correlation coefficient function) (50 μg/ml in water): presence of aggregates | Aggregation by DLLS (correlation coefficient function) (50 μg/ml in water plus triacetin 10 mg/ml): greatly reduces supramolecular aggregation | Aggregation by DLLS (correlation coefficient function) (50 μg/ml in water plus triacetin 30 mg/ml): totally eliminates the presence of molecular aggregates
